Measured values from paper PMC8836258, “Structural Basis of Redox-Sensing Transcriptional Repressor Rex with Cofactor NAD^+ and Operator DNA” (International Journal of Molecular Sciences, 2022).

Target: T1, Tma Rex (Thermotoga maritima, UniProt Q9WY16)
T1 construct: gene rex1; Full-length, residues 1-208 (5-207 modelled); homodimer; P-loop residues 89-94 GAGNIG; crystallised with 22-bp TM0201 operator DNA
T1 sequence (Q9WY16 1-208): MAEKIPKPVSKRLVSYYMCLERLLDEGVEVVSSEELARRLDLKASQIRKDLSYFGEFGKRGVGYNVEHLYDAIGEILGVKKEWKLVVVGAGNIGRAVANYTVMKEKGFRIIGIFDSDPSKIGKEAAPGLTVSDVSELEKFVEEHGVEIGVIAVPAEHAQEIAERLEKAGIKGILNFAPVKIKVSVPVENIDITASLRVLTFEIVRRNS
Experiment: X-ray crystallography, co-crystal structure at […] A
Type: binding
Settings: ternary complex with 22-bp TM0201 operator DNA; 1 mM NAD+ in co-crystallization; pH 6.5, 296 K; one NAD+ per monomer, C-terminal Rossmann domain near dimer interface

`NC(=O)c1ccc[n+]([C@@H]2O[C@H](COP(=O)(O)OP(=O)(O)OC[C@H]3O[C@@H](n4cnc5c(N)ncnc54)[C@H](O)[C@@H]3O)[C@@H](O)[C@H]2O)c1` [NAD^+] was tested. Which “X-ray crystallography, co-crystal structure at 2.40 A” value did it give?
The value was “a dimeric Rex protein bound to one molecule of NAD^+ per monomer”.
